Experimental data published in USRE39420E1, “1,2-Diphenylpyrrole derivatives, their preparation and their therapeutic uses” (Sankyo Company, Limited, priority 1996, dated 2006).

Assays:
[1] = molecular target: T1, Cyclooxygenase-1 from Ram Seminal Vesicle Microsomes (RSVM) (Ovis aries, UniProt P05979); test: Inhibitory activity on cyclooxygenase-1 from ram seminal vesicle microsomes (PGE2 ELISA); type: biochemical; conditions: PGE2 formation, read-out: Inhibitory Effect on COX-1[IC50(μM)]
T1 construct: ram seminal vesicles were homogenised by a blender; from tissue; host or cells: ram seminal vesicles (microsomes)
T1 sequence (P05979 25-600): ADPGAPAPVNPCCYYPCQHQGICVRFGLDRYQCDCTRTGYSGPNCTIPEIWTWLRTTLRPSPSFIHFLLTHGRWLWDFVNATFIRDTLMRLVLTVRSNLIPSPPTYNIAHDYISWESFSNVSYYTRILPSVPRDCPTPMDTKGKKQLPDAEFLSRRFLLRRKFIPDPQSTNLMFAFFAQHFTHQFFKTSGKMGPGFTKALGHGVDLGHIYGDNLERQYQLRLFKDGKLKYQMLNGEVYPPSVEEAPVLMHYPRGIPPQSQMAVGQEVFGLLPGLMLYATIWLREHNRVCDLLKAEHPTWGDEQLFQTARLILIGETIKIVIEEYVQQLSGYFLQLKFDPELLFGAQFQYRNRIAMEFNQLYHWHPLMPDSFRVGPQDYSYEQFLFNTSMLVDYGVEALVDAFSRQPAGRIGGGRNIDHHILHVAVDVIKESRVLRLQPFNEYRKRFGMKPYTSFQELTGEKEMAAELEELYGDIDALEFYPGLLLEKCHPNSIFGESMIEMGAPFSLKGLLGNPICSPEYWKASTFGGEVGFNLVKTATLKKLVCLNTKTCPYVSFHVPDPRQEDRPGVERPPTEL
Procedure: (§1) In order to prepare cyclooxygenase-1 (COX-1) microsomes, ram seminal vesicles were homogenised by a blender. To prepare cyclooxygenase-2 (COX-2) microsomes, an expression vector which contains the human COX-2 gene was introduced into COS cells. The cells were homogenised by sonication after 66 hours cultivation. Microsomes were then prepared in accordance with conventional methods. Enzyme activity was assayed as follows. The assay mixture contained 10 μl of COX-1 or COX-2 microsomes (5 to 15 μg), 2 μl of sample dissolved in dimethyl sulfoxide, 50 μl of 200 mM Tris (pH 7.6), 10 μl of 20 mM reduced glutathione, 10 μl of 10 mM epinephrine, and 15.5 μl of distilled water. After preincubation at 37° C. for 15 minutes, 2.5 μl of 10 μM arachidonic acid (dissolved in ethanol) were then added to the mixture (final volume of 100 μl) and allowed to react at 37° C. for 30 minutes. The final dimethyl sulfoxide and ethanol concentrations were 2% and 2.5%, respectively. To the reaction mixture were then added 15 μl of ice-cooled 0.2M HCl to stop the reaction, and the mixture was cooled at 4° C. for 5 minutes. 15 μl of a 0.2M aqueous solution of sodium hydroxide were then added to the reaction mixture to neutralise the pH. The amount of PGE2, in the reaction mixture was measured using a commercially available ELISA kit (Cayman). IC50 was calculated from the regression line determined by the inhibition rates of PGE2 formation and the concentrations of the compound.

[2] = molecular target: T2, Human Recombinant Cyclooxygenase-2 (Homo sapiens, UniProt P35354); test: Inhibitory activity on human recombinant cyclooxygenase-2 microsomes from COS cells (PGE2 ELISA); type: biochemical; conditions: for IC50: human recombinant COX-2 microsomes, PGE2 formation, read-out: Inhibitory Effect on COX-2 [IC50 (μM)]; for Selectivity (COX-1/COX-2): ratio of IC50 COX-1/COX-2
T2 construct: made in house; host or cells: COS cells (transient expression; microsomes prepared after 66 hours)
T2 sequence (P35354 18-604): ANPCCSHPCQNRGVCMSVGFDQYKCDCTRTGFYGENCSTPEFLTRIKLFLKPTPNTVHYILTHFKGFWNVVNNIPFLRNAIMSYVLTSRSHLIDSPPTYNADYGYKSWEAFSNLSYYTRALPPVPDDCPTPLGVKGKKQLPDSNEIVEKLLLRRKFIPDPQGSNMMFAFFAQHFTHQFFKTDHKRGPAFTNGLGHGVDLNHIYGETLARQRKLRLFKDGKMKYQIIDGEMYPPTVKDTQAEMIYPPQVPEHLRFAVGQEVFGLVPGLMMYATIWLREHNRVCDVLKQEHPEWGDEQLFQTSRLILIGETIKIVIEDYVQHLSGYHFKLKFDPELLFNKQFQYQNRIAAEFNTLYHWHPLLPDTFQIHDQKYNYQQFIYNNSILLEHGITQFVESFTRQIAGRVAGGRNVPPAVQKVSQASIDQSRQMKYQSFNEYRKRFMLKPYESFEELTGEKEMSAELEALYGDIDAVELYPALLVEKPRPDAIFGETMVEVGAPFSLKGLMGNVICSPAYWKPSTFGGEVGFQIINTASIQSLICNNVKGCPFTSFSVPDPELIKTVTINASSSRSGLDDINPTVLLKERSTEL
Procedure: In order to prepare cyclooxygenase-1 (COX-1) microsomes, ram seminal vesicles were homogenised by a blender. To prepare cyclooxygenase-2 (COX-2) microsomes, an expression vector which contains the human COX-2 gene was introduced into COS cells. The cells were homogenised by sonication after 66 hours cultivation. Microsomes were then prepared in accordance with conventional methods.
Enzyme activity was assayed as follows.
as §1, with “The” for “In order to prepare cyclooxygenase-1 (COX-1) microsomes, ram seminal vesicles were homogenised by a blender. To prepare cyclooxygenase-2 (COX-2) microsomes, an expression vector which contains the human COX-2 gene was introduced into COS cells. The cells were homogenised by sonication after 66 hours cultivation. Microsomes were then prepared in accordance with conventional methods. Enzyme activity was assayed as follows. The”

[3] = tested on: yeast-inflamed pain in rats; test: Analgesic effect on yeast-inflamed pain in rats (Randall-Selitto method); type: in vivo, Wistar-Imamichi rats; conditions: Rattus norvegicus, oral, pain threshold 0.5, 1 and 2 hours after administration, read-out: Efficacy Rate (No. of animals in which drug was effective/No. of animals used in test) (converted)
Procedure: The compound was suspended in 0.5%tragacanth and administered orally at a volume of 5 ml/kg. The control group was administered with 0.5% tragacanth only as a vehicle.
Wistar-Imamichi rats (males, 5 week old, body weights: 80-100 g) were used in this test.
The test was conducted in accordance with the method of Winter and Flataker [J. Pharmacol. Exp. Ther. 150, 165-171, (1965)], which is a modification of the original method of Randall and Selitto [Arch. Int. Pharmacodyn. Ther. 111, 405-419, (1957)]. The rats were fasted for 16 hours prior to use. Inflammation was induced by subcutaneous injection of 0.1 ml of a suspension of 20% beer yeast (Sigma) into the right hind footpad of the animal. After 4.5 hours, increasing pressure was applied to the inflamed footpad at a constant speed using an Analgesy meter (Trade mark) (Ugo-Basile Co.).
First the average of pain threshold values at each time point (0.5, 1, and 2 hr) was calculated in a control group. If a pain threshold value exceeded 2 times the control average value at the same time point even once in the drug-treated groups, then the animal was considered to indicate efficacy. Efficacy rates of the drug were estimated by the evaluation method of Blake [J. Pharm. Pharm. 19, 367-373, (1967)].

[4] = tested on: Carrageenan-induced Paw Edema in rats; test: Carrageenan-induced paw edema test; type: in vivo, Wistar-Imamichi rats; conditions: Rattus norvegicus, oral, 3 hours after carrageenan, read-out: Inhibition Rate (%)
Procedure: The same test compounds were subjected to the test as those in the Randall-Selitto test of Experiment 3. Wistar-Imamichi rats (males, 6 week old, body weights: 110-120 g) were used in this test.
The method of Winter, et al. [Proc. Soc. Exp. Biol. Med. 111, 544-547, (1962)] was slightly modified to perform the test [Sankyo Annual Research Report 39, 77-111, (1989)]. The rats were fasted for 16 hours prior to use. Inflammatory edema was induced by the subcutaneous injection of 0.05 ml of a 1% carrageenan (Viscarin 402) solution into the right hind paw of the animal. The test compounds were administered orally 30 minutes before injection of carrageenan. The volume of the right hind foot was measured with a Plethysmometer (Trade mark) (Ugo-Basile Co.) just before administration of the test compound and 3 hours after injection of carrageenan to determine the edema intensity [(right foot volume after 3 hours/right foot volume before injection)-1].

[5] = tested on: gastric mucosa; test: Irritative effect on gastric mucosa; type: in vivo, Wistar rats; conditions: oral; dose producing 50% incidence of gastric ulcers, 3.5 hours after dosing
Procedure: Experiments were performed according to the method described by Jahn and Adrian [Arzneim.-Forsch. 19, 36, (1969)]. Male Wistar rats weighing approximately 120 g were fasted for 16 hours before the experiment. The drugs were administered orally to rats as described in Experiment 3. Three and the half hours after dosing, the animals were killed under ether-anesthesia and the stomachs were placed into 1% of formalin. The stomach was opened by cutting along the greater curvature and the number and length of lesions were counted under a microscope (6.3×10). The ulcerogenicity in each animal was assessed according to Hitchens et. al. [Pharmacologist 9, 242, (1967)]. Incidence was determined as the rate of rats with 4 or more ulcers of more than 0.5 mm length, and UD50's (doses producing 50% incidence) were calculated from the incidence and the dose by probit (=probability unit) method.

| IC50 [1] [µM] | IC50 [2] [µM] | Selectivity (COX-1/COX-2) [2] | SMILES | responders at 12.5 mg/kg [3] [%] | inhibition in vivo at 50 mg/kg [4] [%] | UD50 [5] [mg/kg] |
| --- | --- | --- | --- | --- | --- | --- |
| 85 | 0.023 | 3696 | Cc1cc(-c2ccc(S(N)(=O)=O)cc2)n(-c2ccc(F)cc2)c1 [Example 20, 1-(4-Fluorophenyl)-4-methyl-2-(4-sulfamoylphenyl) pyrrole] | – | – | – |
| > 100 | 0.023 | >4348 | Cc1cc(-c2ccc(S(N)(=O)=O)cc2)n(-c2ccc(F)cc2)c1Cl [Example 38, 5-Chloro-1-(4-fluorophenyl)-4-methyl-2-(4-sulfamoylphenyl)pyrrole] | – | – | – |
| 6.3 | 0.019 | 332 | Cc1ccc(-n2cc(C)cc2-c2ccc(S(N)(=O)=O)cc2)cc1 [Example 58, 4-Methyl-1-(4-methylphenyl)-2-(4-sulfamoylphenyl) pyrrole] | – | – | – |
| 13 | 0.015 | 867 | Cc1cc(-c2ccc(Cl)cc2)n(-c2ccc(S(N)(=O)=O)cc2)c1 [Example 65, 2-(4-Chlorophenyl)-4-methyl-1-(4-sulfamoylphenyl) pyrrole] | 100 | – | >100 |
| 3.8 | 0.023 | 165 | Cc1cc(-c2ccc(S(N)(=O)=O)cc2)n(-c2ccc3c(c2)OCO3)c1 [Example 109] | – | 77 | – |

Continued, compound first:

| SMILES | IC50 [1] [µM] | IC50 [2] [µM] | Selectivity (COX-1/COX-2) [2] | responders at 12.5 mg/kg [3] [%] | inhibition in vivo at 50 mg/kg [4] [%] | UD50 [5] [mg/kg] |
| --- | --- | --- | --- | --- | --- | --- |
| Cc1cc(-c2ccc(S(C)(=O)=O)cc2)n(-c2ccc(C)c(C)c2)c1 [Example 56, 4-Methyl-1-(3,4-dimethylphenyl)-2-(4-methylsulfonylphenyl)pyrrole] | > 100 | 0.018 | >5556 | – | – | – |
| COc1ccc(-n2cc(C)cc2-c2ccc(S(N)(=O)=O)cc2)cc1 [Example 62, 1-(4-Methoxyphenyl)-4-methyl-2-(4-sulfamoylphenyl)pyrrole] | 1.5 | 0.0097 | 153 | 100 | 55 | – |
| COc1ccc(-c2c(C)ccn2-c2ccc(S(N)(=O)=O)cc2)cc1 [Example 73, 2-(4-Methoxyphenyl)-3-methyl-1-(4-sulfamoylphenyl)pyrrole] | 3 | 0.025 | 120 | – | 72 | – |
| COc1ccc(-c2cc(C)cn2-c2ccc(S(C)(=O)=O)cc2)cc1 [Example 80, 2-(4-Methoxyphenyl)-4-methyl-1-(4-methylsulfonylphenyl)pyrrole] | 25 | 0.011 | 2273 | – | – | >100 |
| Cc1cc(-c2ccc(S(N)(=O)=O)cc2)n(-c2ccc(Cl)c(Cl)c2)c1 [Example 103] | 3.7 | 0.01 | 370 | – | 56 | >100 |
| Cc1cc(-c2ccc(S(N)(=O)=O)cc2)n(-c2ccc(F)c(Cl)c2)c1 [Example 108] | 6 | < 0.01 | >600 | – | 58 | – |
